# Measured values reported in US20100280056A1, “IDENTIFICATION OF SUBJECTS LIKELY TO BENEFIT FROM STATIN THERAPY” (The Govt. of the U. S. as Represented by the Secretary of …, priority 2007, published 2010).
# Tested on: colon cancer cell lines
# Experiment: Total cholesterol content of colon cancer cell lines with and without atorvastatin (Cholesterol/Cholesteryl Ester Quantification Kit)
# Type: cell-based
# Conditions: 25 μM atorvastatin, 24 hours, serum-free medium; cell lines with rs12654264 A allele compared to T allele (FIG. 4)
# Protocol: Microsatellite stable (MSS) colon cancer cell lines (SW480, SW620, HT29, WiDr, and SW1417) were cultured in RPMI (supplemented with 10% Fetal Bovine Serum, 100 IU/mL of Penicillin, 100 IU/mL of Streptomycin, and 1× Non-Essential Amino Acid) at 37° C. in an atmosphere of 5% CO2. The cells were trypsinized and washed with PBS twice. […] The cholesterol level of each colon cancer line was measured using Cholesterol/Cholesteryl Ester Quantification Kit from Abcam (Cambridge, Mass.). Cells were plated into 6-well plates to reach approximate confluency of 70%. After overnight incubation, the cells were treated with 25 μM atorvastatin diluted in serum-free DMEM/F12 50:50 (supplemented with 100 IU/mL of Penicillin, 100 IU/mL of Streptomycin, and 1× Non-Essential Amino Acid) for 24 hours at 37° C., 5% CO2. After treatment, the cells were trypsinized and counted to 1×10^6 cells. The cells were pelleted, washed with PBS twice, and resuspended in 200 μl of pure chloroform with 1% Triton® X-100. The cell suspension was vortexed for 15 seconds, and centrifuged at maximum speed for 10 minutes. The lower (organic) phase was collected and air dried at 50° C., followed by vacuum drying for 30 minutes to remove the chloroform. The dried lipids were resuspended with 100 μl of the Cholesterol Reaction Buffer provided in the kit, and vortexed for 5 minutes vigorously at room temperature. […]
smiles,measurement,value
CC(C)c1c(C(=O)Nc2ccccc2)c(-c2ccccc2)c(-c2ccc(F)cc2)n1CC[C@@H](O)C[C@@H](O)CC(=O)O [atorvastatin],statin-dependent cholesterol reduction,significantly greater statin-dependent cholesterol reduction
